Measured values taken from the NIST ThermoML archive (doi:10.1021/je0342116).
Numbers after ± are expanded uncertainties.

Assay: activity coefficient (dimensionless); of the first substance listed, at infinite dilution; xn = mol fraction of the nth substance listed
Conditions: Liquid, Chromatography, x1 = 0

SMILES | activity coefficient (249.97 K) | activity coefficient (270.03 K) | activity coefficient (290 K) | activity coefficient (310 K) | activity coefficient (330 K) | activity coefficient (249.96 K) | activity coefficient (270.04 K)
C=CC=C [1,3-butadiene] + CC(C)O | 3.9 ± 0.2 | 3.8 ± 0.2 | 3.7 ± 0.2 | 3.5 ± 0.2 | 3.3 ± 0.2 | – | –
CC(C)C [2-methylpropane] + CC(C)O | – | – | 5.2 ± 0.2 | 5 ± 0.2 | 4.7 ± 0.2 | 5.4 ± 0.3 | 5.3 ± 0.2
CCCC [butane] + CC(C)O | 5.2 ± 0.2 | 5.1 ± 0.2 | 5.1 ± 0.2 | 4.9 ± 0.2 | 4.6 ± 0.2 | – | –

Results, then the compound that gave them:

activity coefficient (249.97 K) | activity coefficient (270.03 K) | activity coefficient (290 K) | activity coefficient (310 K) | activity coefficient (330 K) | activity coefficient (249.96 K) | activity coefficient (270.04 K) | SMILES
4.4 ± 0.2 | 4.4 ± 0.2 | 4.3 ± 0.2 | 4.1 ± 0.2 | 3.9 ± 0.2 | – | – | C=CCC [1-butene] + CC(C)O
4.4 ± 0.2 | 4.3 ± 0.2 | 4.2 ± 0.2 | 4 ± 0.2 | 3.8 ± 0.2 | – | – | C=C(C)C [2-methylpropene] + CC(C)O
– | – | 4.2 ± 0.2 | 4.1 ± 0.2 | 3.9 ± 0.2 | 4.3 ± 0.2 | 4.3 ± 0.2 | C/C=C/C [(E)-2-butene] + CC(C)O
– | – | 4.4 ± 0.2 | 4.3 ± 0.2 | 4.2 ± 0.2 | 4.5 ± 0.2 | 4.5 ± 0.2 | CCC [propane] + CC(C)O
– | – | 3.7 ± 0.2 | 3.6 ± 0.2 | 3.4 ± 0.2 | 3.8 ± 0.2 | 3.7 ± 0.2 | C=CC [propene] + CC(C)O
